Substitutions are numbered along the chain they refer to. pKd: −log10 of the molar value. Several values for one entry are separate records, joined by “and”; a condition that tells them apart may be missing. Equal entries are not always repeated.

The record followed here is US20180021277A1, “ANTI-VIRULENCE COMPOSITIONS AND METHODS” (priority 2012, published 2018).

The subject of assay [1] is MRSA USA300. The assay can be described thus: Host cell damage assay (LDH leakage), MRSA. Format: cell-based, Staphylococcus aureus. Conditions: for % Damage (LDH Leakage): THP-1 human monocytes; for Damage (%): Table 2, control = 100. The procedure:
(§1) Damage to host cells was measured by leakage of lactate dehydrogenase (LDH) with the CytoTox 96 Non-Radioactive Cytotoxicity LDH Assay Promega Kits G178 and G1782 according to manufacturer's instructions.
(§2) […] The bacteria were cultured at 37° C., in a shaking incubator for 6 h at which time 20 μL of bacterial culture was added to 5×10^4 THP-1 monocytes or J774.2 macrophages in 100 μL of cell media (DMEM for J774.2 cells and RPMI for THP-1 cells) in 96 well plates. Bacteria and macrophage/monocytes were incubated together for 40 min at 37° C. Plates were then spun at 250 g for 4 min and 50 μL of the supernatant was removed to a new 96 well plate. 50 μL of substrate mix+assay buffer were added and incubated at room temperature for 10-30 min depending upon the rate of product formation and stopped by addition of 50 μL stop solution. The colorometric products were read at 490 nm on a Victor 3 plate reader. The data presented are from experiments performed in triplicate.
(§3) Gram-positive pathogens compromise host cell defense factors by puncturing membranes of immune system cells. To examine F19 efficacy in preventing host cell damage by various pathogens cell lysis assays were carried out by measuring leakage of lactate dehydrogenase (LDH) from cells. F19 indeed inhibits pathogen-mediated lysis of human THP-1 monocytes and mouse macrophage cell line J7774.2 by a series of Gram-positive pathogens, including MRSA, MRSE, Streptococcus pyogenes, Streptococcus pneumoniae and Bacillus cereus in a dose dependent manner (Table 2 for MRSA, Table 4 for other pathogens).

In assay [2] the test system is MRSA USA300. In words: Biofilm measurement (crystal violet), MRSA. The format is cell-based, Staphylococcus aureus. Conditions: control = 100. The procedure:
(§4) Bacterial cells were grown in Luria Broth overnight and an OD600 of 0.5 corresponding to 10^6 cfu/mL. 200 μL of this bacterial culture was plated with the presence of compound at various concentrations. Biofilm was allowed to form by placing the plate at 37° C. in the incubator without shaking. The plate was then washed 2× with water while being careful not to disturb the biofilm. Water was aspirated out and the plate was baked dry in a 60° C. incubator for 2 h. 125 μL of a 0.06% crystal violet solution ([…] in H2O) was added to each well and allowed to sit at room temperature for 15 minutes. […] The plate was inverted on a paper towel to dry overnight.125 μL of 30% acetic acid was added to each well and was left at room temperature for 15 minutes. The wells were mixed by pipetting and the solution was transferred to a clean 96-well plate and read at OD595.

For a further assay, the system named is MRSE Q-15. In words: Biofilm measurement (crystal violet), MRSE. The format is cell-based, Staphylococcus epidermidis. Conditions: control = 100. The procedure: as §4
Assay [3] deals with T1, C-terminal DNA-binding domain (AgrA_C) of the Staphylococcus aureus response regulator AgrA (Staphylococcus aureus, UniProt P0A0I7).
T1 sequence (P0A0I7 143-238): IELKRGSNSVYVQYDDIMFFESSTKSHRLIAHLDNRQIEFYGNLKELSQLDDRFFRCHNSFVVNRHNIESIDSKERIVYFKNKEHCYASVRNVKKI
The assay can be described thus: Microscale thermophoresis binding to AgrA_C. Conditions: listed as F19, read-out: Kd / affinity to AgrA_C. The procedure: The AgrA C proteins from S. aureus and S. epidermidis were fluorescently labeled with Alexa Fluor 647 NHS ester and purified on Zeba spin columns. Compound F19 was diluted as a gradient through the capillaries while protein concentrations were maintained constant. Measurements were performed on a Nanotemper Monolith NT.115 apparatus. Lysozyme and known inhibitor N,N′,N″-triacetylchitotriose (Fisher Scientific) were used as controls.

In assay [4] the test system is MRSA USA300. In words: Murine MRSA bacteremia/sepsis model.
Assay [5] relates to MRSA knockout strain (Lac Δagr). The format is cell-based, Staphylococcus aureus. Particulars: data not shown.
The test system of assay [6] is Strepococcus pneumonia NR13395. In words: Host cell damage assay (LDH leakage), Streptococcus pneumoniae. The format is cell-based. Conditions: THP-1 human monocytes. The procedure:
as §1, §2, §3
(Release of lactate dehydrogenase indicates damage to the cell membrane.)

Assay [7] addresses T2, AgrA_C from S. epidermidis / P3 DNA (Staphylococcus epidermidis, UniProt Q5HMY2).
T2 sequence (Q5HMY2 143-238): T1 sequence (P0A0I7 143-238) with S48A, D52E, V63I, K83G, H85N, Y87F
In words: Electrophoretic mobility shift assay of AgrA_C from S. epidermidis with P3 DNA. Format: binding. Conditions: 1 nM P3 DNA, 1 μM AgrA_C, increasing F19, 1% DMSO. The procedure: FIG. 8 illustrates Electrophoretic mobility shift assay of AgrA_C from S. epidermidis as a function of F19 concentration. […] P3 DNA was radiolabeled with 32P. The concentrations of P3 DNA and AgrA_C were 1 nM and 1 μM, respectively. F19 was titrated in at increasing concentrations while maintaining a constant concentration of 1% DMSO.

The subject of assay [8] is MRSA USA300. The format is in vivo, mice. Particulars: topical twice a day for seven days, day 8.

Turning to `CCCCCCc1cc(C(=O)COc2ccc(C(C)C)cc2)c(O)cc1O` [4f-19], the “% Damage (LDH Leakage)” value in the assay on MRSA USA300 [1] (F19 1 μg/mL) is 62.0 ± 0.6%; in the assay with MRSA USA300 [1] (F19 10 μg/mL) it was 44.2 ± 2.0%; in the assay with MRSA USA300 [1] (F19 50 μg/mL) it was 29.1 ± 1.6%; in assay [6] (F19 1 μg/mL), 89.3 ± 1.0%; in assay [6] (F19 5 μg/mL), 68.3 ± 1.1%; in assay [6] (F19 10 μg/mL), 45.5 ± 1.7%. Besides, the “% Damage (LDH Leakage)” value is listed as 37.1 ± 0.6% in assay [6] (F19 20 μg/mL) and 37.7 ± 0.7% in [6] (F19 50 μg/mL). The “Damage (%)” value in the assay with MRSA USA300 [1] (F19 1 μg/ml) is 62.0 ± 0.6%; in the assay on MRSA USA300 [1] (F19 10 μg/ml) it was 44.2 ± 2.0%; in the assay on MRSA USA300 [1] (F19 50 μg/ml), 29.1 ± 1.6%. For the same compound, the “Biofilm (%)” value in the assay with MRSA USA300 [2] (F19 1 μg/ml) is recorded as 78.8 ± 11.8%; with MRSA USA300 [2] (F19 10 μg/ml) it was 53.7 ± 7.9%; with MRSA USA300 [2] (F19 50 μg/ml), 20.6 ± 3.7%; in the assay on MRSE Q-15 (F19 1 μg/ml), 92.2 ± 9.8%; in the assay on MRSE Q-15 (F19 10 μg/ml) it was 69.3 ± 10.7%; with MRSE Q-15 (F19 50 μg/ml), 34.1 ± 9.8%. Further, the pKd in assay [3] is 5.54 and 5.35. For the same compound, the “mean bacterial load in blood compared to vehicle-treated animals” value in the assay with MRSA USA300 [4] (30 mg/kg IP twice daily, day 6) is “nearly an order of magnitude lower”. This compound came in with a survival in the assay with MRSA USA300 [4] (F19 alone 30 mg/kg IP twice daily for 7 days) of 100%. Also, the “synergy with antibiotics in Lac Δagr” value in assay [5] is recorded as “synergy is lost”. The “formation of the protein-nucleic acid complex (EMSA)” value in assay [7] is listed as “prevent the formation of the protein—nucleic acid complex”. In the assay on MRSA USA300 [8], the “bacterial load on the wounds compared to vehicle-treated or untreated wounds” value is “did not reduce the bacterial load on the wounds”. In addition, the “tissue burden of the wound, average log CFUs ± standard deviation” value with MRSA USA300 [8] (cephalothin 30 mg/kg, F19 20 mg/kg, vancomycin 30 mg/kg) is 8.50±0.4 log CFU.
